In ChEMBL document CHEMBL6087386, “Radioprotective effectiveness of a novel delta-tocotrienol prodrug on mouse hematopoietic system against 60Co gamma-ray irradiation through inducing granulocyte-colony stimulating factor production” (Eur J Med Chem, 2024):
The source made the active and inactive calls. The rule behind the calls is not given here.

How the values were obtained:
Mus musculus [1] = assay: Induction of G-CSF production in C57BL/6J mouse model at 100 mg/kg, sc measured for 24 hrs by ELISA analysis; type: functional, organism-based
[2] = Stability in C57BL/6J mouse whole blood assessed as half-life; type: ADME, tissue-based
Mus musculus [3] = assay: Radioprotective activity in C57BL/6J mouse assessed as survival rate at 100 mg/kg, sc preincubated with compound for 24 hrs followed by total body irradiation with 8.5 Gy and measured after 20 days by Kaplan-meier plot analysis; type: functional; settings: light or radiation study, 504 h, time 21 day
Mus musculus [4] = assay: Radioprotective activity in C57BL/6J mouse assessed as survival rate at 100 mg/kg, sc preincubated with compound for 24 hrs followed by total body irradiation with 8.5 Gy and measured after 30 days by Kaplan-meier plot analysis; type: functional; settings: time 31 day

Row | Structure (SMILES) | Activity (Mus musculus [1]) | further results
1 | CC(C)=CCC/C(C)=C/CC/C(C)=C/CC[C@]1(C)CCc2cc(OC(=O)C3CCN(C)CC3)cc(C)c2O1 | Active | –
2 | CC(C)=CCC/C(C)=C/CC/C(C)=C/CC[C@]1(C)CCc2cc(OC(=O)CCCCC(=O)O)cc(C)c2O1 | Active | half-life [2]: 2.1 min; survival at 100 mg/kg (Mus musculus [3]): 70%
3 | CC(C)=CCC/C(C)=C/CC/C(C)=C/CC[C@]1(C)CCc2cc(OCC(=O)O)cc(C)c2O1 | Active | –
4 | CC(C)=CCC/C(C)=C/CC/C(C)=C/CC[C@]1(C)CCc2cc(OCCCCC(=O)O)cc(C)c2O1 | Active | –
5 | CC(C)=CCC/C(C)=C/CC/C(C)=C/CC[C@]1(C)CCc2cc(OCCCCO)cc(C)c2O1 | Active | –
6 | CC(C)=CCC/C(C)=C/CC/C(C)=C/CC[C@]1(C)CCc2cc(OCC(C)(C)C(=O)O)cc(C)c2O1 | Active | –
7 | CC(C)=CCC/C(C)=C/CC/C(C)=C/CC[C@]1(C)CCc2cc(OC(=O)CCCC(=O)O)cc(C)c2O1 | Active | half-life [2]: 5.5 min; survival at 100 mg/kg (Mus musculus [3]): 70%
8 | CC(C)=CCC/C(C)=C/CC/C(C)=C/CC[C@]1(C)CCc2cc(O)c(C)c(C)c2O1 | Active | –
9 | CC(C)=CCC/C(C)=C/CC/C(C)=C/CC[C@]1(C)CCc2cc(OC(=O)CN(C)C)cc(C)c2O1 | Active | survival at 100 mg/kg (Mus musculus [3]): 70%
10 | CC(C)=CCC/C(C)=C/CC/C(C)=C/CC[C@]1(C)CCc2cc(OC(=O)Cc3cccnc3)cc(C)c2O1 | Active | –
11 | CC(=O)Oc1cc(C)c2c(c1)CC[C@@](C)(CC/C=C(\C)CC/C=C(\C)CCC=C(C)C)O2 | Active | –
12 | CC(C)=CCC/C(C)=C/CC/C(C)=C/CC[C@]1(C)CCc2cc(OCCN(C)C)cc(C)c2O1 | Active | –
13 | CC(C)=CCC/C(C)=C/CC/C(C)=C/CC[C@]1(C)CCc2cc(OC(=O)CC(C)(C)C(=O)O)cc(C)c2O1 | Active | survival at 100 mg/kg (Mus musculus [3]): 70%
14 | CC(C)=CCC/C(C)=C/CC/C(C)=C/CC[C@]1(C)CCc2cc(OC(=O)c3ccncc3)cc(C)c2O1 | Active | –
15 | CC(C)=CCC/C(C)=C/CC/C(C)=C/CC[C@]1(C)CCc2cc(OCCCCCO)cc(C)c2O1 | Active | –
16 | CC(C)=CCC/C(C)=C/CC/C(C)=C/CC[C@]1(C)CCc2cc(OC(=O)C3CCNCC3)cc(C)c2O1 | Active | survival at 100 mg/kg (Mus musculus [3]): 70%; survival at 100 mg/kg (Mus musculus [4]; Mus musculus, C57BL/6J, light or radiation study, 744 h): 70%
17 | CC(C)=CCC/C(C)=C/CC/C(C)=C/CC[C@]1(C)CCc2cc(OC(=O)CCC(N)=O)cc(C)c2O1 | Active | –
18 | CC(C)=CCC/C(C)=C/CC/C(C)=C/CC[C@]1(C)CCc2cc(OCCC(=O)O)cc(C)c2O1 | Active | –
19 | CC(C)=CCC/C(C)=C/CC/C(C)=C/CC[C@]1(C)CCc2cc(OCCN)cc(C)c2O1 | Active | –
20 | CC(C)=CCC/C(C)=C/CC/C(C)=C/CC[C@]1(C)CCc2c(C)c(O)cc(C)c2O1 | Active | –
21 | CNCCOc1cc(C)c2c(c1)CC[C@@](C)(CC/C=C(\C)CC/C=C(\C)CCC=C(C)C)O2 | Active | –
22 | CCCC(CCC)C(=O)Oc1cc(C)c2c(c1)CC[C@@](C)(CC/C=C(\C)CC/C=C(\C)CCC=C(C)C)O2 | Active | –
23 | CC(C)=CCC/C(C)=C/CC/C(C)=C/CC[C@]1(C)CCc2cc(OCC(C)(C)CO)cc(C)c2O1 | Active | –
24 | CC(C)=CCC/C(C)=C/CC/C(C)=C/CC[C@]1(C)CCc2cc(OCCCC(=O)O)cc(C)c2O1 | Active | –
25 | CC(C)=CCC/C(C)=C/CC/C(C)=C/CC[C@]1(C)CCc2cc(OC(=O)c3cccnc3)cc(C)c2O1 | Active | –
26 | CC(C)=CCC/C(C)=C/CC/C(C)=C/CC[C@]1(C)CCc2cc(OC(=O)c3ccccn3)cc(C)c2O1 | Active | –
27 | COC(=O)CCC(=O)Oc1cc(C)c2c(c1)CC[C@@](C)(CC/C=C(\C)CC/C=C(\C)CCC=C(C)C)O2 | – | half-life [2]: 30.3 min
28 | CC(C)=CCC/C(C)=C/CC/C(C)=C/CC[C@]1(C)CCc2cc(OCCCO)cc(C)c2O1 | Active | survival at 100 mg/kg (Mus musculus [3]): 70%; Activity (Mus musculus [4]): 80%
